The values that follow come from patent US7544679B2 (Hoffman-La Roche Inc., priority 2007, dated 2009).

Series [1] in a line: THESA assay for determination of the thermodynamic solubility. In kind it is physicochemical. The conditions noted are these: 22.5 °C, aqueous buffer, thermodynamic from solid, second figure of the cell. Here is the method:
In addition, the compounds of the present invention have been tested in a THESA assay for determination of the thermodynamic solubility.
Approximately 2 mg of each compound was added in excess to a 50 mM phosphate buffer, at room temperature (22.5±1° C.). Each sample was placed in a microanalysis tube, which was sonicated for 1 h and agitated for 2 h. All suspensions were left overnight. At the next day all pHs were measured with a pH-meter and the samples filtered with a micronic filterplate (MSGVN2250) to separate the solid material from the solution. Then, all solutions were analyzed by HPLC. The calibration line was established by different concentrations of the compound in DMSO. From this regression equation the solubility of the compound was determined.

In another series the target is T1, γ-secretase (Homo sapiens, UniProt P49768).
T1 construct: HEK293 membrane fraction as a source of γ-secretase
In words: in vitro assay of γ-secretase activity (HEK293 membrane fraction, recombinant APP substrate, Abeta ELISA). In kind it is biochemical. Conditions: for Comments: potency (and THESA solubility) of the present example compared with the corresponding example from WO 2005/023772. The text has this: Description of γ-secretase Assay
The activity of test compounds can be evaluated in assays which measure the proteolytic cleavage of suitable substrates by γ-secretase activity. These can be cellular assays where e.g., a substrate of the γ-secretase is fused in its cytoplasmic domain to a transcription factor. Cells are transfected with this fusion gene and a reporter gene, e.g., firefly luciferase, which expression is enhanced by the transcription factor. Cleavage of the fused substrate by γ-secretase will lead to expression of the reporter gene which can be monitored in appropriate assays. The γ-secretase activity can also be determined in cell-free in vitro assays where e.g., a cell lysate containing the γ-secretase complex is incubated with a suitable APP-derived substrate which is cleaved to the Abeta peptides. The amount of produced peptides can be determined with specific ELISA assays. Cell lines of neuronal origin secrete Abeta peptides which can be measured with the specific ELISA assay. Treatment with compounds which inhibit γ-secretase leads to a reduction of secreted Abeta thus providing a measure of inhibition.
The in vitro assay of γ-secretase activity uses a HEK293 membrane fraction as a source of γ-secretase and a recombinant APP substrate. Latter consist of the C-terminal 100 amino acids of human APP fused to a 6×Histidin tail for purification which is expressed in E.coli in a regulatable expression vector, e.g. pEt15. This recombinant protein corresponds to the truncated APP fragment which results after […] of the extracellular domain and which constitutes the γ-secretase substrate. The assay principle is described in Li Y M et al, PNAS 97(11), 6138-6143 (2000). Hek293 cells are mechanically disrupted and the microsomal fraction is isolated by differential centrifugation. The membranes are solubilized in detergent (0.25% CHAPSO) and incubated with the APP substrate. The Abeta peptides which are produced by γ-secretase cleavage of the substrate are detected by specific ELISA assays as described (Brockhaus M et al, Neuroreport 9(7), 1481-1486 (1998).
(ELISA stands for enzyme-linked immunosorbent assay.)

The mark [2] stands for this setting: comparison compounds from WO 2005/023772, 50 mM phosphate buffer, room temperature, read-out: THESA (IC50/THESA, Corresponding Example from WO 2005/023772).
[3] abbreviates: 50 mM phosphate buffer, room temperature (22.5±1° C.), read-out: THESA (IC50/THESA, Example No. present appl.).

Values after ≈ are worked out from the molar mass of the structure shown. Read-outs that look alike come from different tables or passages of the source. Some results are limits rather than exact numbers.

On to `C[C@@](F)(C(=O)NCC(F)(F)C(F)(F)F)C(=O)N[C@H]1C(=O)Nc2ccccc2-c2ccccc21` [reference compound], for which the solubility thermodynamic in series [1] (setting [2]) was less than 1 µg/mL.
Consider `C[C@](O)(C(=O)NCC(F)(F)C(F)(F)F)C(=O)N[C@@H]1C(=O)Nc2ccccc2-c2ccccc21` [Example 1c, (S)-2-Hydroxy-2-methyl-N-((S)-6-oxo-6,7-dihydro-5H-dibenzo[b,d]azepin-7-yl)-N′-(2,2,3,3,3-pentafluoro-propyl)-malonamide], for which, in series [1] (setting [3]), the solubility thermodynamic is 14 µg/mL (≈ 29.7 µM).
Take `C[C@@](O)(C(=O)NCC(F)(F)C(F)(F)F)C(=O)N[C@@H]1C(=O)Nc2ccccc2-c2ccccc21` [Example 1b, (R)-2-Hydroxy-2-methyl-N-((S)-6-oxo-6,7-dihydro-5H-dibenzo[b,d]azepin-7-yl)-N′-(2,2,3,3,3-pentafluoro-propyl)-malonamide]: the solubility thermodynamic in series [1] (setting [3]) amounted to 19 µg/mL (≈ 40.3 µM).
In the case of `C[C@](O)(C(=O)NCC(F)(F)F)C(=O)N[C@@H]1C(=O)Nc2ccccc2-c2ccccc21` [Example 3b, (S)-2-Hydroxy-2-methyl-N-((S)-6-oxo-6,7-dihydro-5H-dibenzo[b,d]azepin-7-yl)-N′-(2,2,2-trifluoro-ethyl)-malonamide], at γ-secretase, the Comments entry is “Higher potency, higher solubility”. Further, in series [1] (setting [3]), the solubility thermodynamic was determined as 26 µg/mL (≈ 61.7 µM).
With `CC(C)(C(=O)NCC(F)(F)F)C(=O)N[C@H]1C(=O)Nc2ccccc2-c2ccccc21` [reference compound], in series [1] (setting [2]), the solubility thermodynamic was determined as 16 µg/mL (≈ 38.1 µM).
With `CCCC(O)(C(N)=O)C(=O)N(CCC(F)(F)F)[C@@H]1C(=O)Nc2ccccc2-c2ccccc21` (single isomer, unassigned) [Example 6g, (R or S)-2-Hydroxy-N-((S)-6-oxo-6,7-dihydro-5H-dibenzo[b,d]azepin-7-yl)-2-propyl-N-(3,3,3-trifluoro-propyl)-malonamide], the Comments result on γ-secretase is listed as “Higher potency”.
For `C[C@](O)(C(=O)NCCC(F)(F)F)C(=O)N[C@@H]1C(=O)Nc2ccccc2-c2ccccc21` [Example 2c, (S)-2-Hydroxy-2-methyl-N-((S)-6-oxo-6,7-dihydro-5H-dibenzo[b,d]azepin-7-yl)-N′-(3,3,3-trifluoro-propyl)-malonamide], on γ-secretase, the Comments entry is “Higher potency, higher solubility”. Also, the solubility thermodynamic in series [1] (setting [3]) came to 127 µg/mL (≈ 292 µM).
`CC(C)(C(=O)NCCC(F)(F)F)C(=O)N[C@H]1C(=O)Nc2ccccc2-c2ccccc21` [reference compound]: the solubility thermodynamic in series [1] (setting [2]) is less than 1 µg/mL.
`CCCC(C)(C(=O)NCCC(F)(F)F)C(=O)N[C@H]1C(=O)Nc2ccccc2-c2ccccc21` (stereo partly shown) [reference compound]: the “IC50 (IC50/THESA, Corresponding Example from WO 2005/023772)” value on γ-secretase (first figure of the cell, comparison compounds from WO 2005/023772) was “nearly inactive/—”.
For `CC(O)(C(=O)NCC(F)(F)C(F)(F)F)C(=O)N[C@@H]1C(=O)N(CC(F)(F)F)c2ccccc2-c2ccccc21` (mixture of isomers) [Example 12a], on γ-secretase, the Comments result was “Higher potency”.
`C[C@](O)(C(=O)NCC(F)(F)F)C(=O)N[C@@H]1C(=O)N(CC(F)(F)F)c2ccccc2-c2ccccc21` [Example 13b, (S)-2-Hydroxy-2-methyl-N-[(S)-6-oxo-5-(2,2,2-trifluoro-ethyl)-6,7-dihydro-5H-dibenzo[b,d]azepin-7-yl]-N′-(2,2,2-trifluoro-ethyl)-malonamide]: the Comments result on γ-secretase was “Higher potency”. In addition, the solubility thermodynamic in series [1] (setting [3]) stood at 14 µg/mL (≈ 27.8 µM).
Turning to `CCCC(O)(C(=O)NCCC(F)(F)F)C(=O)N[C@@H]1C(=O)Nc2ccccc2-c2ccccc21` (mixture of isomers) [Example 6a], the Comments result at γ-secretase was “Higher potency”.
On to `C[C@](F)(C(=O)NCC(F)(F)C(F)(F)F)C(=O)N[C@H]1C(=O)Nc2ccccc2-c2ccccc21` [reference compound], for which the solubility thermodynamic in series [1] (setting [2]) was less than 1 µg/mL.
